Experimental data from patent US5851782A, “Inhibitors of ceramidase” (Duke University, priority 1996, dated 1998).

Tests used:
[1] = molecular target: T1, acid ceramidase (Homo sapiens, UniProt Q13510); assay: Acid ceramidase activity in vitro at pH 4.5; format: biochemical; set-up: Ceramidase activity was determined from total homogenates of HL-60 cells; endogenous in cells; host or cells: HL-60 cells; details: 50 μM
T1 sequence (Q13510 22-395): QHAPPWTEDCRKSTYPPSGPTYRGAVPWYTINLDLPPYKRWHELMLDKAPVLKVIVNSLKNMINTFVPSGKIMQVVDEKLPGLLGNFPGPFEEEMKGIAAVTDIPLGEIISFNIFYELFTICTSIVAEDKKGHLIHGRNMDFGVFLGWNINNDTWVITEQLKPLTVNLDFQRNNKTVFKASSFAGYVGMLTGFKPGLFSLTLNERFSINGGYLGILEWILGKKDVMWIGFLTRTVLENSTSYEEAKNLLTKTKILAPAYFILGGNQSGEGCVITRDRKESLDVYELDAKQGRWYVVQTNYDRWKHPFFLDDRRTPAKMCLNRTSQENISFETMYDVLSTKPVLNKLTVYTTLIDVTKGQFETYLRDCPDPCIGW
Experimental: Measurement of ceramidase activity in HL-60 cells. Ceramidase activity in HL-60 cells was measured by a modification of the method of Gatt and Yavin (Methods Enzymol. 14:139 (1969)). Cells were disrupted by sonication in 0.25M sucrose, 1 mM EDTA, and centrifuged at 10,000×g for 10 min after which the supernatant was centrifuged at 100,000×g for 60 min. Ten μl of 1 mM ceramide substrate ([^3 H]C16 -ceramide) was mixed with 100 μl of Triton X-100 (0.1%) in chloroform/methanol, 2:1, and 100 μl of 0.2% sodium cholate in chloroform/methanol, 2:1, after which the solvent was evaporated under N2 at 70° C. To this mixture, 30 μl of water was added and the tubes were heated for 5 s in an 80° C. water bath and then put on ice. Fifty μl of the appropriate buffer depending on desired pH was added followed by 20 μl of 50 mM MgCl2 and 100 μl of cell extract. In experiments using inhibitors, the desired inhibitor was added in ethanol either with the substrate or directly to the final solution. The reaction mixture was incubated for 1 h at 37° C. The ^3 H-fatty acid products of ceramidase were separated by the addition of 2 ml of Dole's solution (isopropyl alcohol, heptane, NaOH), 1.2 ml of heptane, and 1 ml of water. After vortexing and centrifugation, the upper phase was discarded and the lower phase was washed twice with heptane and the upper phase discarded each time. […]

[2] = tested on: endogenous ceramide levels in HL-60 cells; assay: cells; details: Homo sapiens, HL-60, 24 h, read-out: endogenous ceramide level relative to baseline
Experimental: Ceramide and diacylglycerol levels were measured on total liquid extracts using the diacylglycerol kinase assay (Jayadev et al, J. Biol. Chem. 270:2047 (1995)).
Therefore, HL-60 cells were treated with 5 μM D-e-MAPP, ethanol vehicle or L-e-MAPP for 0-24 h. At the indicated time points (FIG. 4A), total lipids were extracted and endogenous ceramide levels were measured by the Escherichia coli diacylglycerol kinase assay.
The upper spot of ceramide phosphate co-migrated with synthetic D-erythro-C18 dihydroceramide phosphate whereas the lower spot co-migrated with D-erythro-C18 ceramide phosphate.

Q: Which results are given for `CCCCCCCCCCCCCC(=O)N[C@H](C)[C@@H](O)c1ccccc1` [D-e-MAPP, D-erythro-2-(N-myristolyamino)-1-phenyl-1-propanol]?
A: inhibition at 50 µM [1]: < 10%; fold induction at 5 µM [2]: ~3
